The subject of assay [1] is wild type AR (MDA 453 cells). The note with it: read-out: Kd for [3H]-DHT, Scatchard analysis, 4 h at 37° C. Here is the method:
For the whole-cell binding assay, human LNCaP cells (T877A mutant AR) or MDA 453 (wild type AR) in 96-well microtiter plates containing RPMI 1640 or DMEM supplemented with 10% charcoal stripped CA-FBS (Cocaleco Biologicals) respectively, were incubated at 37° C. to remove any endogenous ligand that might be complexed with the receptor in the cells.
For the saturation analysis, the difference between the total binding and the non-specific binding, was defined as specific binding. […] See e.g. D. Rodbard, Mathematics and statistics of ligand assays: an illustrated guide: In: J. Langon and J. J. Clapp, eds., Ligand Assay, Masson Publishing U.S.A., Inc., New York, pp. 45-99, (1981), the disclosure of which is herein incorporated by reference.
Two replicates were used for each sample.
[formula] After correcting for non-specific binding, IC50 values were determined. […] C2C12 Mouse Myoblast Transactivation Assay

Assay [2] has as its target glucocorticoid receptor (endogenous, A549 cells) (Homo sapiens, UniProt P04150). The note with it: concentration ≦10 μM; 10 ng/mL PMA; 7 h at 37° C. Here is the method:
The AP-1 assay is a cell-based luciferase reporter assay. A549 cells, which contain endogenous glucocorticoid receptor, were stably transfected with an AP-1 DNA binding site attached to the luciferase gene. Cells are then grown in RPMI+10% fetal calf serum (charcoal-treated)+Penicillin/Streptomycin with 0.5 mg/mL geneticin. Cells are plated the day before the assay at approximately 40000 cells/well. On assay day, the media is removed by aspiration and 20 μL assay buffer (RPMI without phenol red+10% FCS (charcoal-treated)+Pen/Strep) is added to each well. At this point either 20 μL assay buffer (control experiments), the compounds of the present invention (“test compounds”) (dissolved in DMSO and added at varying concentrations) or dexamethasome (100 nM in DMSO, positive control) are added to each well. The plates are then pre-incubated for 15 min at 37° C., followed by stimulation of the cells with 10 ng/mL PMA. The plates are then incubated for 7 h at 37° C. after which 40 μL luciferase substrate reagent is added to each well. Activity is measured by analysis in a luminometer as compared to control experiments treated with buffer or dexamethasome.

A further assay has as its target T1, androgen receptor (Rattus norvegicus, UniProt P15207).
T1 sequence (P15207 1-902): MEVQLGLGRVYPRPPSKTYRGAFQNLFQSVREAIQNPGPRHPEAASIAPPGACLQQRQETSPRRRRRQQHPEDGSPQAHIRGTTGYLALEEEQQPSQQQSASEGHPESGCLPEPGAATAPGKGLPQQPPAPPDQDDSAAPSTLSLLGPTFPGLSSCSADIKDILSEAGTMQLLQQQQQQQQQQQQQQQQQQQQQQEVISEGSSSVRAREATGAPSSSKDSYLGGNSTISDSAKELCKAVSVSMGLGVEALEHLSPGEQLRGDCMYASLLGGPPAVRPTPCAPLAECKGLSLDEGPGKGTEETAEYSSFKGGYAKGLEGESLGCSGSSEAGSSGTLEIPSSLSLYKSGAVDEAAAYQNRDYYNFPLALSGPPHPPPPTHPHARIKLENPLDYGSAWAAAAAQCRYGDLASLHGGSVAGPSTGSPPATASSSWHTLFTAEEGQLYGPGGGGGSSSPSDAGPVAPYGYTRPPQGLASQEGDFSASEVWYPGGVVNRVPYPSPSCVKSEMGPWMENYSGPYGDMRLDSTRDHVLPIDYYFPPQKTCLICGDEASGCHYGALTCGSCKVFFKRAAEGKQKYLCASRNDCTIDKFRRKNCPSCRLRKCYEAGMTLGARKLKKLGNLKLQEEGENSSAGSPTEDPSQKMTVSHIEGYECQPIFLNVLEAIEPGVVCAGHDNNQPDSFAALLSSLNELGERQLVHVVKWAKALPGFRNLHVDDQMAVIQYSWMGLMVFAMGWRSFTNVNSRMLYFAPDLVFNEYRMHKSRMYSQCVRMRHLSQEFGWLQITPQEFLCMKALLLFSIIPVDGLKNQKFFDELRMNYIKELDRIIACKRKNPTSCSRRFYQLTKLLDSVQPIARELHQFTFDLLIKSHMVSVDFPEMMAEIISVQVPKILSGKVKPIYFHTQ
As to conditions: castrated rats.

Chain of glucocorticoid receptor (endogenous, A549 cells) (P04150 whole entry): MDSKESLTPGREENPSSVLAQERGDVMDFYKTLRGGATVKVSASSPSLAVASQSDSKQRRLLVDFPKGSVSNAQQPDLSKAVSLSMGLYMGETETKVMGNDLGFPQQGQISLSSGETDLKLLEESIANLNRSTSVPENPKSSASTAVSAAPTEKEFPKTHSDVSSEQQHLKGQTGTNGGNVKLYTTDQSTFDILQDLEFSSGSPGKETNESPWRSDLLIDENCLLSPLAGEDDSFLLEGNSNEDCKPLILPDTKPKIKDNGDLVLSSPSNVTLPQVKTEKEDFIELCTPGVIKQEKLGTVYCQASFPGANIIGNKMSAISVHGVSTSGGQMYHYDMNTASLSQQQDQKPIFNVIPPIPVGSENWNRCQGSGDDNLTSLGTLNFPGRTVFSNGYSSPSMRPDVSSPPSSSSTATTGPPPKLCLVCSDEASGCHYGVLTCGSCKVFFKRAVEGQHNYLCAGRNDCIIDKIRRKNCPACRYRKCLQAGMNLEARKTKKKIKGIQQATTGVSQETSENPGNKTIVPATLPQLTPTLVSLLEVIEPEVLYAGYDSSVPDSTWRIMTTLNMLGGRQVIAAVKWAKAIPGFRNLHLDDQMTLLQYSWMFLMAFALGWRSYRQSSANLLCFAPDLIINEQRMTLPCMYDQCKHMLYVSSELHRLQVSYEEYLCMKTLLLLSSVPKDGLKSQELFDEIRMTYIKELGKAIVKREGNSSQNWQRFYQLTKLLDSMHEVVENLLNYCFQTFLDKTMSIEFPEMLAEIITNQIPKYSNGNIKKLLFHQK
Excerpt for androgen receptor: The basis of this assay lies in the well-defined action of androgenic agents on the maintenance and growth of muscle tissues and sexual accessory organs in animals and man. […] As described above, the effects of androgens on maintenance of male sexual accessory organs, such as the prostate and seminal vesicles, is well described. Castration results in rapid involution and atrophy of the prostate and seminal vesicles. This effect can be reversed by exogenous addition of androgens. Since both the levator ani muscle and the male sex organs are the tissues most responsive to the effects of androgenic agents, this model is used to determine the androgen dependent reversal of atrophy in the levator ani muscle and the sex accessory organs in immature castrated rats. Sexually mature rats (200-250 g, 6-8 weeks-old, Sprague-Dawley, Harlan) were acquired castrated from the vendor (Taconic). The rats were divided into groups and treated daily for 7 to 14 days with one of the following: • 1. Control vehicle • 2. […] TP plus Bicalutamide (administered p.o. in PEGTW, QD), a recognized antiandrogen, as a reference compound. • 4.
At the end of the 7-14-day treatment, the animals were sacrificed by carbon dioxide, and the levator ani, seminal vesicle and ventral prostate weighed. […]

As a reminder, the Kd is the equilibrium constant for the complex coming apart. “tritiated dihydrotestosterone [[^3H]-DHT]”: the Kd in assay [1] was determined as 0.7 nM.

With `C[C@@H]1C[C@H]2[C@@H]3CCC4=CC(=O)C=C[C@]4(C)[C@@]3(F)[C@@H](O)C[C@]2(C)[C@@]1(O)C(=O)CO` [dexamethasone], the “% inhibition of the AP-1 reporter system vs buffer control with PMA alone” value in assay [2] came out at 65%. Turning to `CCC(=O)O[C@H]1CC[C@H]2[C@@H]3CCC4=CC(=O)CC[C@]4(C)[C@H]3CC[C@]12C` [testosterone propionate, Testosterone Propionate], the “EC50 (increase in organ weight)” value at androgen receptor is listed as ~0.03 mg.

These data come from patent US7625923B2, “Bicyclic modulators of androgen receptor function” (Bristol-Myers Squibb Company, priority 2004, dated 2009).
